Results as given in patent US8741940B2, “Microbicidal composition” (Rohm and Haas Company, priority 2005, dated 2014).
Where two headings read alike, the source gives them in different places.

Columns and labels:
Assay type in all cases: cell-based
[1] = test system: Escherichia coli (E. coli—ATCC #8739); test: Synergy test, microtiter plate high resolution MIC assay, bacterium in M9GY medium; parameters: key to SI (synergy index): SI = Qa/QA + Qb/QB; >1 antagonism, lower SI = greater synergy; Qa (First Component A) / Qb (Second Component B): unit: ppm; conditions: for MIC: Escherichia coli, read-out: Qb (concentration of second component producing the end point, MIC)
Method: (§1) When the sum of Qa/QA and Qb/QB is greater than one, antagonism is indicated. […] The lower the SI, the greater the synergy shown by that particular mixture. The minimum inhibitory concentration (MIC) of a microbicide is the lowest concentration tested under a specific set of conditions that prevents the growth of added microorganisms.
(§2) Synergy tests were conducted using standard microtiter plate assays with media designed for optimal growth of the test microorganism. Minimal salt medium supplemented with 0.2% glucose and 0.1% yeast extract (M9GY medium) was used for testing bacteria; Potato Dextrose Broth (PDB medium) was used for testing yeast and mold. In this method, a wide range of combinations of microbicides and other personal care raw materials was tested by conducting high resolution MIC assays in the presence of various concentrations of BBIT or MBIT. High resolution MICs were determined by adding varying amounts of microbicide to one column of a microtitre plate and doing subsequent […] dilutions using an automated liquid handling system to obtain a series of endpoints ranging from 2 ppm to 10,000 ppm active ingredient.
(§3) The bacteria were used at a concentration of about 5 ×10^6 bacteria per mL and the yeast and mold at 5×10^5 fungi per mL. These microorganisms are representative of natural contaminants in many consumer and industrial applications. […] (yeast and mold) or 30° C. (bacteria).
(§4) In each test, First Component (A) was BBIT and the Second Component (B) was the other commercial microbicide.
(§5) In each test, First Component (A) was MBIT and the Second Component (B) was the other commercial microbicide.

[2] = test system: Aspergillus niger (A. niger—ATCC 16404); test: Synergy test, microtiter plate high resolution MIC assay, mold in PDB medium; parameters: key to SI (synergy index): SI = Qa/QA + Qb/QB; >1 antagonism, lower SI = greater synergy; Qb (Second Component B) / Qa (First Component A): unit: ppm; conditions: for MIC: Aspergillus niger, read-out: Qb (concentration of second component producing the end point, MIC)
Method: as §1, §2, §3, §4, §5

[3] = test system: Candida albicans (C. albicans—ATCC 10231); test: Synergy test, microtiter plate high resolution MIC assay, yeast in PDB medium; parameters: key to SI (synergy index): SI = Qa/QA + Qb/QB; >1 antagonism, lower SI = greater synergy; Qb (Second Component B) / Qa (First Component A): unit: ppm; conditions: for MIC: Candida albicans, read-out: Qb (concentration of second component producing the end point, MIC)
Method: as §1, §2, §3, §4, §5

[4] = C. albicans 10231, PDB, 48 hours
[5] = A=MBIT, B=Caprylyl glycol, E. coli 8739 - M9GY, 24 hours
[6] = A=MBIT, B=Caprylyl glycol, A. niger 16404 - PDB, 4 days
[7] = A=MBIT, B=Caprylyl glycol, C. albicans 10231 - PDB, 24 hours

## COC(=O)c1ccc(O)cc1 [Methylparaben]
[1]; E. coli 8739, M9GY, 24 hours
  SI (synergy index): 1.00
[1]; E. coli 8739 - M9GY, 72 hours, BBIT with Methylparaben
  SI: 1.00
[1]; ATCC8739, E. coli 8739, M9GY, 24 hours, alone where Qa = 0, otherwise in the mixture
  MIC: 2000 µg/mL
[2]; A. niger 16404, PDB, 7 days
  SI (synergy index): 1.00
[2]; A. niger 16404 - PDB, 3 days, BBIT with Methylparaben
  SI: 1.00
[2]; ATCC16404, 168 h, A. niger 16404, PDB, 7 days, alone where Qa = 0, otherwise in the mixture
  MIC: 800 µg/mL
[3]; [4]
  SI (synergy index): 1.00
[3]; C. albicans 10231 - PDB, 24 hours, BBIT with Methylparaben
  SI: 1.00
[3]; ATCC10231, C. albicans 10231, PDB, 48 hours, alone where Qa = 0, otherwise in the mixture
  MIC: 2000 µg/mL

## Zinc pyrithione
[1]
  Qb (concentration of Second Component B = Zinc pyrithione at the end point): 2
  SI (synergy index): 1.00
[2]
  Qb (concentration of Second Component B = Zinc pyrithione at the end point): 20
  SI (synergy index): 1.00
[3]
  Qb (concentration of Second Component B = Zinc pyrithione at the end point): 30
  SI (synergy index): 1.00

## C/C=C/C=C/C(=O)[O-].[K+] [Potassium sorbate]
[1]
  SI: 1.00
  SI (synergy index): 1.00
[1]; ATCC8739, 48 h
  MIC: 20000 µg/mL
[2]
  SI: 1.00
  SI (synergy index): 1.00
[2]; ATCC16404, 96 h
  MIC: 10000 µg/mL
[3]
  SI: 1.00
  SI (synergy index): 1.00
[3]; ATCC10231, 24 h
  MIC: 400 µg/mL

## CCCCCCC(O)CO (stereo not drawn) [Caprylyl glycol]
[1]; [5]
  Qb (Second Component B): 2000
  SI (synergy index): 1.00
[1]; E. coli 8739, M9GY, 24 hours, 30° C.
  MIC of the component acting alone (QA / QB): 2000 ppm
[2]; A. niger 16404, PDB, 7 days, 25° C.
  MIC of the component acting alone (QA / QB): 3000 ppm
[2]; [6]
  Qb (Second Component B): 1000
  SI (synergy index): 1.00
[3]; [7]
  Qb (Second Component B): 4000
  SI (synergy index): 1.00
[3]; C. albicans 10231, PDB, 24 hours, 25° C.
  MIC of the component acting alone (QA / QB): 3000 ppm

## O=C([O-])c1ccccc1.[Na+] [Sodium benzoate]
[1]; E. coli 8739, M9GY, 24 hours
  SI (synergy index): 1.00
[1]; E. coli 8739, M9GY, 24 hours, alone where Qa = 0, otherwise in the mixture
  Qb (concentration of second component producing the end point, MIC): 10000 ppm
[1]; E. coli 8739 - M9GY, 24 hours, BBIT with Sodium benzoate
  SI: 1.00
[2]; A. niger 16404, PDB, 7 days
  SI (synergy index): 1.00
[2]; A. niger 16404, PDB, 7 days, alone where Qa = 0, otherwise in the mixture
  Qb (concentration of second component producing the end point, MIC): 10000 ppm
[2]; A. niger 16404 - PDB, 7 days, BBIT with Sodium benzoate
  SI: 1.00
[3]; [4]
  SI (synergy index): 1.00
[3]; C. albicans 10231, PDB, 48 hours, alone where Qa = 0, otherwise in the mixture
  Qb (concentration of second component producing the end point, MIC): 2000 ppm
[3]; C. albicans 10231 - PDB, 48 hours, BBIT with Sodium benzoate
  SI: 1.00
